Measured values from patent publication US20250064957A1, “EXATECAN DERIVATIVES, LINKER-PAYLOADS, AND CONJUGATES AND THEREOF” (priority 2021, published 2025).

Legend:
Format in all cases: cell-based
[1] = tested on: high HER2 tumor cell line SK-BR-3; test: Effect of small molecules on SK-BR-3 cell proliferation (CellTiter-Glo); settings: SK-BR-3, 120 h incubation, relative biological activity with Dxd as control sample
Method: Study Purpose: In this experiment, cell viability was detected using CellTiter-Glo to evaluate the effects of the small molecule compounds on the proliferation of a high HER2 tumor cell line SK-BR-3, and to analyze the effects of the small molecule compounds on the proliferation of tumor cells.
• (1) Microscopic examination of cells • (2) Digestion: digested using 2 mL 0.25% trypsin for 3 minutes; • (3) Centrifuge: 1000 rpm for 5 min; • (4) Cell counting • A. Cell dilution: • B. Cell plating: in 100 μl/well • C. Incubation: 37° C., 5% CO2, overnight
• (1) Microscopic examination • (2) Drug preparation: • A. Preparation of Buffer for preparation of samples: the desired amount of Buffer for preparation of samples was prepared using the culture medium (10% FBS) for the testing cells; • B. Sample preparation: the sample was diluted from the first concentration to the desired concentration in a 96-well deep-well Plate.
Positive control Puromycin: A stock solution of 2.5 mg/ml was used, and diluted with the cell medium. A dilution of 250-fold was preformed, and then a dilution of 2-fold was preformed when applying the compounds to reach the testing concentration 5 μg/ml for puromycin. • (3) Application of the compounds: for each concentration of the diluted series, the compound was applied in triplicate. In 100 μl/well. • (4) After the drug was added, the cells were incubated in the incubator for 120 h.
• (1) Preparation of detection reagents: CellTiter-Glo Luminescent Cell Viability Assay detection reagent was allowed to warm to room temperature with protection from light • (2) Cell preparation: The cells to be tested were taken out from the incubator and equilibrated at room temperature (25° C.) 30 min. • (3) ATP detection: Discard the culture medium and 100 μl/well DMEM was added, 50 μl/hole CTG was added into 96-well plate, protected from light using aluminum foil and oscillated using a vortex oscillator at room temperature of 200 rpm for 10 min. • (4) Detection procedure: After setting up the procedure, the black-wall clear-bottom plate was placed in the instrument without its cover. • (5) Data acquisition.
GraphPad software was used to process the data. […] If necessary, the relative biological activity of sample A, i.e., ratio activity was calculated. Dxd was used as the control sample for the ratio activity calculation.
Cell proliferation inhibition rate (%)=([…])/(luminescence value of blank control group−luminescence value of puro group)×100; wherein the puro group refers to the group treated with puromycin
R^2 Value ≥0.950; CV % between parallel pores ≤30%.

[2] = tested on: SK-BR-3 HER2-high cell line; test: Effect of HER2-targeting conjugates on cell proliferation (CellTiter-Glo), SK-BR-3; settings: SK-BR-3, 120 h
Method: (§1) Study Purpose: Cell viability was detected by CellTiter-Glo assay to evaluate the effects of the ADCs on the proliferation of two high HER2 tumor cell lines SK-BR-3, NCI-N87 and a HER2-negative tumor cell line MDA-MB-468, and to analyze the effects of the ADCs on the proliferation of tumor cells.
(§2) Positive control Puromycin: A stock solution of 10 mg/ml was used, and diluted with the cell medium. A dilution of 100-fold was preformed, and then a dilution of 10-fold was preformed when applying the compounds to reach the testing concentration 5 μg/ml for puromycin. • (4) Application of the compounds: for each concentration of the diluted series, the compound was applied in triplicate. […]

[3] = tested on: NCI-N87 HER2-high cell line; test: Effect of HER2-targeting conjugates on cell proliferation (CellTiter-Glo), NCI-N87; settings: NCI-N87, 120 h
Method: as §1, §2

CC[C@@]1(O)C(=O)OCc2c1cc1n(c2=O)Cc2c-1nc1cc(F)c(Br)c3c1c2[C@H](NC(=O)C[C@H](C)O)CC3 [C600]
Ratio activity (%) [1]: 0.62%

CC[C@@]1(O)C(=O)OCc2c1cc1n(c2=O)Cc2c-1nc1cc(F)c(Br)c3c1c2[C@H](NC(=O)C[C@@H](C)O)CC3 [C602]
Ratio activity (%) [1]: 0.29%

CC[C@@]1(O)C(=O)OCc2c1cc1n(c2=O)Cc2c-1nc1cc(F)c(Cl)c3c1c2[C@@H](NC(=O)[C@H](O)C(F)(F)F)CC3 [C626]
Ratio activity (%) [1]: 0.54%

CC[C@@]1(O)C(=O)OCc2c1cc1n(c2=O)Cc2c-1nc1cc(F)c(Cl)c3c1c2[C@@H](NC(=O)CCCO)CC3 [C679]
Ratio activity (%) [1]: 0.49%

CC[C@@]1(O)C(=O)OCc2c1cc1n(c2=O)Cc2c-1nc1cc(F)c(Cl)c3c1c2[C@H](N)CC3 [C731]
Ratio activity (%) [1]: 0.82%

CC[C@@]1(O)C(=O)OCc2c1cc1n(c2=O)Cc2c-1nc1cc(F)c(C)c3c1c2[C@@H](NC(=O)CO)CC3 [Dxd]
Ratio activity (%) [1]: 1% | IC50 [2]: 1.47 nM | IC50 [3]: 4.68 nM
